From PubChem BioAssay AID1963960 (Molecular Pharmacology Branch, DTP, NCI, 2024)

Test system: MDA-MB-468 spheroids with HUVEC/MSC, viability
Assay: Anticancer human tumor MDA-MB-468 cell line growth inhibition [PI3K];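 also: spheroids exposed to agents for seven days before readout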;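 as to viability, T/C: 100% = DMSO vehicle control viability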
Details: for viability, T/C: stronger effect = lower value
In short: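 Spheroid viability read-out. Co-cultures contained the tumor line plus HUVEC and human MSCs. Each agent was paired with a PI3K inhibitor (inavolisib, alpelisib, duvelisib, copanlisib) across half-log dilutions starting at clinical Cmax, or at 10 microM when Cmax was unknown.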

[1] = curve of first compound, second compound 0.0316 µM
[2] = curve of first compound, second compound 0.1 µM
[3] = curve of first compound, second compound 0.316 µM
[4] = curve of first compound, second compound 1 µM
[5] = curve of first compound, second compound 3.16 µM
[6] = curve of first compound, second compound 10 µM
[7] = second compound 0.0316 µM, first compound 0.0316 µM
[8] = second compound 0.0316 µM, first compound 0.1 µM
[9] = second compound 0.0316 µM, first compound 0.316 µM
[10] = second compound 0.0316 µM, first compound 1 µM
[11] = second compound 0.0316 µM, first compound 3.16 µM
[12] = second compound 0.0316 µM, first compound 10 µM
[13] = second compound 0.1 µM, first compound 0.0316 µM
[14] = second compound 0.1 µM, first compound 0.1 µM
[15] = second compound 0.1 µM, first compound 0.316 µM
[16] = second compound 0.1 µM, first compound 1 µM
[17] = second compound 0.1 µM, first compound 3.16 µM
[18] = second compound 0.1 µM, first compound 10 µM
[19] = second compound 0.316 µM, first compound 0.0316 µM
[20] = second compound 0.316 µM, first compound 0.1 µM
[21] = second compound 0.316 µM, first compound 0.316 µM
[22] = second compound 0.316 µM, first compound 1 µM
[23] = second compound 0.316 µM, first compound 3.16 µM
[24] = second compound 0.316 µM, first compound 10 µM
[25] = second compound 1 µM, first compound 0.0316 µM
[26] = second compound 1 µM, first compound 0.1 µM
[27] = second compound 1 µM, first compound 0.316 µM
[28] = second compound 1 µM, first compound 1 µM
[29] = second compound 1 µM, first compound 3.16 µM
[30] = second compound 1 µM, first compound 10 µM
[31] = second compound 3.16 µM, first compound 0.0316 µM
[32] = second compound 3.16 µM, first compound 0.1 µM
[33] = second compound 3.16 µM, first compound 0.316 µM
[34] = second compound 3.16 µM, first compound 1 µM
[35] = second compound 3.16 µM, first compound 3.16 µM
[36] = second compound 3.16 µM, first compound 10 µM
[37] = second compound 10 µM, first compound 0.0316 µM
[38] = second compound 10 µM, first compound 0.1 µM
[39] = second compound 10 µM, first compound 0.316 µM
[40] = second compound 10 µM, first compound 1 µM
[41] = second compound 10 µM, first compound 3.16 µM
[42] = second compound 10 µM, first compound 10 µM

SMILES: CC1(C)CCC(Nc2ncc(C(F)(F)F)c(-c3c[nH]c4c(P(C)(C)=O)c(C#N)ccc34)n2)CN1 (stereo unspecified) + Cc1nc(NC(=O)N2CCCC2C(N)=O)sc1-c1ccnc(C(C)(C)C(F)(F)F)c1
- IC50 [1]: < 0.0316 µM
- IC50 [2]: < 0.0316 µM
- IC50 [3]: < 0.0316 µM
- IC50 [4]: < 0.0316 µM
- IC50 [5]: < 0.0316 µM
- IC50 [6]: < 0.0316 µM
- viability, T/C [7]: 12.9%
- viability, T/C [8]: 13.4%
- viability, T/C [9]: 10.2%
- viability, T/C [10]: 12.3%
- viability, T/C [11]: 10.3%
- viability, T/C [12]: 1.66%
- viability, T/C [13]: 13.4%
- viability, T/C [14]: 13.6%
- viability, T/C [15]: 11%
- viability, T/C [16]: 11.7%
- viability, T/C [17]: 9.67%
- viability, T/C [18]: 1.49%
- viability, T/C [19]: 16.6%
- viability, T/C [20]: 10.6%
- viability, T/C [21]: 9.57%
- viability, T/C [22]: 11.6%
- viability, T/C [23]: 9.4%
- viability, T/C [24]: 1.34%
- viability, T/C [25]: 13.8%
- viability, T/C [26]: 10.9%
- viability, T/C [27]: 9.4%
- viability, T/C [28]: 10.7%
- viability, T/C [29]: 7.46%
- viability, T/C [30]: 1.27%
- viability, T/C [31]: 15.4%
- viability, T/C [32]: 10.6%
- viability, T/C [33]: 9.84%
- viability, T/C [34]: 9.67%
- viability, T/C [35]: 5.93%
- viability, T/C [36]: 1.32%
- viability, T/C [37]: 11%
- viability, T/C [38]: 7.92%
- viability, T/C [39]: 8.97%
- viability, T/C [40]: 6.88%
- viability, T/C [41]: 4.2%
- viability, T/C [42]: 0.98%

SMILES: Cn1nccc1Nc1nccc(-c2ccn(C(CO)c3ccc(Cl)c(F)c3)c(=O)c2)n1 (stereo unspecified)
- viability, T/C (compound 0.0316 µM): 92.3% [middle of 4 runs]
- viability, T/C (compound 0.1 µM): 92.9% [middle of 4 runs]
- viability, T/C (compound 0.316 µM): 101% [middle of 4 runs]
- viability, T/C (compound 10 µM): 81.9% [middle of 4 runs]
- IC50 (curve of compound): > 10 µM

SMILES: CC(=O)c1c(C)c2cnc(Nc3ccc(N4CCNCC4)cn3)nc2n(C2CCCC2)c1=O + CC(Nc1ccc2c(c1)OCCn1cc(N3C(=O)OCC3C(F)F)nc1-2)C(N)=O
- IC50 (curve of first compound, second compound 0.00316 µM): > 0.1 µM
- IC50 (curve of first compound, second compound 0.01 µM): > 0.1 µM
- IC50 [1]: > 0.1 µM
- IC50 [2]: > 0.1 µM
- IC50 [3]: > 0.1 µM
- IC50 [4]: > 0.1 µM
- viability, T/C (second compound 0.00316 µM, first compound 0.000316 µM): 96.1%
- viability, T/C (second compound 0.00316 µM, first compound 0.001 µM): 95.3%
- viability, T/C (second compound 0.00316 µM, first compound 0.00316 µM): 96.8%
- viability, T/C (second compound 0.00316 µM, first compound 0.01 µM): 102%
- viability, T/C (second compound 0.00316 µM, first compound 0.0316 µM): 97.4%
- viability, T/C (second compound 0.00316 µM, first compound 0.1 µM): 89.9%
- viability, T/C (second compound 0.01 µM, first compound 0.000316 µM): 105%
- viability, T/C (second compound 0.01 µM, first compound 0.001 µM): 91%
- viability, T/C (second compound 0.01 µM, first compound 0.00316 µM): 93.6%
- viability, T/C (second compound 0.01 µM, first compound 0.01 µM): 110%
- viability, T/C (second compound 0.01 µM, first compound 0.0316 µM): 105%
- viability, T/C (second compound 0.01 µM, first compound 0.1 µM): 97.1%
- viability, T/C (second compound 0.0316 µM, first compound 0.000316 µM): 103%
- viability, T/C (second compound 0.0316 µM, first compound 0.001 µM): 92.7%
- viability, T/C (second compound 0.0316 µM, first compound 0.00316 µM): 89%
- viability, T/C (second compound 0.0316 µM, first compound 0.01 µM): 89%
- viability, T/C [7]: 97%
- viability, T/C [8]: 79.3%
- viability, T/C (second compound 0.1 µM, first compound 0.000316 µM): 86.5%
- viability, T/C (second compound 0.1 µM, first compound 0.001 µM): 84.8%
- viability, T/C (second compound 0.1 µM, first compound 0.00316 µM): 101%
- viability, T/C (second compound 0.1 µM, first compound 0.01 µM): 88.4%
- viability, T/C [13]: 96%
- viability, T/C [14]: 89.2%
- viability, T/C (second compound 0.316 µM, first compound 0.000316 µM): 89.5%
- viability, T/C (second compound 0.316 µM, first compound 0.001 µM): 72.1%
- viability, T/C (second compound 0.316 µM, first compound 0.00316 µM): 79.1%
- viability, T/C (second compound 0.316 µM, first compound 0.01 µM): 87.5%
- viability, T/C [19]: 83.8%
- viability, T/C [20]: 84.1%
- viability, T/C (second compound 1 µM, first compound 0.000316 µM): 84.1%
- viability, T/C (second compound 1 µM, first compound 0.001 µM): 81.6%
- viability, T/C (second compound 1 µM, first compound 0.00316 µM): 73%
- viability, T/C (second compound 1 µM, first compound 0.01 µM): 90.6%
- viability, T/C [25]: 66.7%
- viability, T/C [26]: 82%

SMILES: CC(Cn1ccc(-c2ccc(C#N)c(Cl)c2)n1)NC(=O)c1cc(C(C)O)[nH]n1 (stereo unspecified) + Cc1nc(NC(=O)N2CCCC2C(N)=O)sc1-c1ccnc(C(C)(C)C(F)(F)F)c1
- IC50 [1]: > 10 µM
- IC50 [2]: > 10 µM
- IC50 [3]: > 10 µM
- IC50 [4]: > 10 µM
- IC50 [5]: > 10 µM
- IC50 [6]: < 0.0316 µM
- viability, T/C [7]: 82.4%
- viability, T/C [8]: 93%
- viability, T/C [9]: 88.3%
- viability, T/C [10]: 111%
- viability, T/C [11]: 72%
- viability, T/C [12]: 50.6%
- viability, T/C [13]: 89.4%
- viability, T/C [14]: 93.9%
- viability, T/C [15]: 79.9%
- viability, T/C [16]: 99%
- viability, T/C [17]: 64.6%
- viability, T/C [18]: 55.7%
- viability, T/C [19]: 88%
- viability, T/C [20]: 86.5%
- viability, T/C [21]: 80.6%
- viability, T/C [22]: 92.2%
- viability, T/C [23]: 61.5%
- viability, T/C [24]: 54%
- viability, T/C [25]: 86.3%
- viability, T/C [26]: 71.1%
- viability, T/C [27]: 64.1%
- viability, T/C [28]: 70.4%
- viability, T/C [29]: 61.2%
- viability, T/C [30]: 50.5%
- viability, T/C [31]: 74.4%
- viability, T/C [32]: 54.2%
- viability, T/C [33]: 64.4%
- viability, T/C [34]: 61.3%
- viability, T/C [35]: 53.4%
- viability, T/C [36]: 49.2%
- viability, T/C [37]: 33.4%
- viability, T/C [38]: 28.8%
- viability, T/C [39]: 28.4%
- viability, T/C [40]: 29.9%
- viability, T/C [41]: 28.3%
- viability, T/C [42]: 21.5%
